Experimental data taken from US9708336B2, “Metallo-beta-lactamase inhibitors” (priority 2014, dated 2017).
Like-named read-outs stand apart in the source and are kept apart here.

Columns and labels:
NDM-1 = NDM-1 (Klebsiella pneumoniae, UniProt C7C422); assay: biochemical; type: biochemical; conditions: read-out: NDM-1 IC50
[1] = test system: Escherichia coli expressing NDM-1 (CLB30005); assay: Antibiotic potentiation activity: synergistic concentration (MITC95) with imipenem, OD600 growth; type: cell-based; conditions: for Escherichia coli MITC95: Escherichia coli expressing NDM-1 (CLB30005), 95% growth inhibition; for Escherichia coli expressing NDM-1 (CLB 30005) MITC95: concentration giving 95% inhibition of bacterial growth
In short: (§1)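 Spectrophotometric growth readings were taken following 22–24 h at 35 °C. Before that, organisms in 1.1× CAMHB were mixed with imipenem, used at 4 μg/ml in assay, and test compound.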

[2] = test system: Klebsiella pneumoniae expressing VIM-1 (IHMA599644); assay: as above; type: cell-based; conditions: for Klebsiella pneumoniae MITC95: Klebsiella pneumoniae expressing VIM-1 (IHMA599644), 95% growth inhibition; for Klebsiella pneumoniae expressing VIM-1 (IHMA 599644) MITC95: concentration giving 95% inhibition of bacterial growth
In short: as §1

[3] = test system: Serratia marcescens expressing IMP-1 (CL5741); assay: as above; type: cell-based; conditions: for Serratia marcescens MITC95: Serratia marcescens expressing IMP-1 (CL5741), 95% growth inhibition; for Serratia marcescens expressing IMP-1 (CL5741) MITC95: concentration giving 95% inhibition of bacterial growth
In short: as §1

VIM-1 = VIM-1 (Pseudomonas aeruginosa (strain ATCC 15692 / DSM 22644 / CIP 104116 / JCM 14847 / LMG 12228 / 1C / PRS 101 / PAO1), UniProt A0A0F7KYQ8); assay: Enzyme activity: determination of IC50, fluorescence assay with CCF2-FA substrate (VIM-1); type: biochemical
IMP-1 = IMP-1 (Serratia marcescens, UniProt P52699); assay: biochemical; type: biochemical
[4] = NDM-1 enzyme, CCF2-FA fluorescence assay
[5] = VIM-1 enzyme, CCF2-FA fluorescence assay, read-out: VIM-1 IC50
[6] = IMP-1 enzyme, CCF2-FA fluorescence assay, read-out: IMP-1 IC50
[7] = fluorescence assay with CCF2-FA substrate
[8] = fluorescence assay with CCF2-FA substrate, read-out: VIM-1 IC50
[9] = fluorescence assay with CCF2-FA substrate, read-out: IMP-1 IC50
[10] = VIM-1 IC50, VIM-1 enzyme, CCF2-FA fluorescence assay

Sequence of IMP-1 (P52699 whole entry, looked up): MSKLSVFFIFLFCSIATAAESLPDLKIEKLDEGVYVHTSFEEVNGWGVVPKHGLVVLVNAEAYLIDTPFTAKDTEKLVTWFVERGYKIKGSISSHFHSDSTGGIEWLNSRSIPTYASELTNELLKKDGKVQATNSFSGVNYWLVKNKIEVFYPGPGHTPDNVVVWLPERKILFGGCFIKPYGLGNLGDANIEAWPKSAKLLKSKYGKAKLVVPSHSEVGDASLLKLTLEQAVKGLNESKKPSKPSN
Sequence of NDM-1 (C7C422 whole entry, looked up, species assumed): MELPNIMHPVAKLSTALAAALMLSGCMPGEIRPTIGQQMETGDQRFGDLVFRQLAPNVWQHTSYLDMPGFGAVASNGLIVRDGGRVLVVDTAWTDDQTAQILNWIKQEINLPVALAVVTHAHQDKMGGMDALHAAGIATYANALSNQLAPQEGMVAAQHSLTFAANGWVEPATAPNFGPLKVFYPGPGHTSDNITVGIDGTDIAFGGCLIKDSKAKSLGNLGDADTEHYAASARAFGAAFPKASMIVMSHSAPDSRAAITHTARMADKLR

| Compound | IC50 (NDM-1; [4]) | Escherichia coli MITC95 [1] | Klebsiella pneumoniae MITC95 [2] | Serratia marcescens MITC95 [3] | IC50 (VIM-1; [5]) | IC50 (IMP-1; [6]) | IC50 (NDM-1; [7]) | Escherichia coli expressing NDM-1 (CLB 30005) MITC95 [1] | Klebsiella pneumoniae expressing VIM-1 (IHMA 599644) MITC95 [2] | Serratia marcescens expressing IMP-1 (CL5741) MITC95 [3] | IC50 (VIM-1; [8]) | IC50 (IMP-1; [9]) | IC50 (VIM-1; VIM-1 IC50, fluorescence assay with CCF2-FA substrate) | IC50 (VIM-1; [10]) | IC50 (IMP-1) |
| --- | --- | --- | --- | --- | --- | --- | --- | --- | --- | --- | --- | --- | --- | --- | --- |
| NS(=O)(=O)c1cccc(-c2ccccc2O)c1-c1nn[nH]n1 [Example 326, 2′-hydroxy-2-(2H-tetrazol-5-yl)-[1,1′-biphenyl]-3-sulfonamide] | 3.65 nM | 3.32 µM | 37.5 µM | 18.75 µM | 136 nM | 370 nM |  |  |  |  |  |  |  |  |  |
| CS(=O)(=O)Nc1cccc(-c2cccc(S(N)(=O)=O)c2-c2nn[nH]n2)c1 [Example 86, 3′-[(methylsulfonyl)amino]-2-(2H-tetrazol-5-yl)biphenyl-3-sulfonamide] |  |  |  |  |  |  | 11 nM | 0.7813 µM | 200 µM | 3.125 µM | 1070 nM | 67.4 nM |  |  |  |
| Cn1ccc(-c2cccc(S(N)(=O)=O)c2-c2nn[nH]n2)n1 [Example 97, 3-(1-methyl-1H-pyrazol-3-yl)-2-(2H-tetrazol-5-yl)benzenesulfonamide] |  |  |  |  |  |  | 71.1 nM | 0.5859 µM | 200 µM | 18.75 µM | 1620 nM | 1570 nM |  |  |  |
| NCCc1ccc(-c2cccc(S(N)(=O)=O)c2-c2nnn[nH]2)cn1 [Example 307, 3-(6-(2-aminoethyl)pyridin-3-yl)-2-(1H-tetrazol-5-yl)benzenesulfonamide] | 174 nM | 1.172 µM | 12.5 µM | 50 µM | 96.2 nM | 4890 nM |  |  |  |  |  |  |  |  |  |
| CCOC(=O)N1CCC(c2cccc(S(N)(=O)=O)c2-c2nn[nH]n2)CC1 [Example 173, ethyl 4-(3-sulfamoyl-2-(2H-tetrazol-5-yl)phenyl)piperidine-1-carboxylate] |  |  |  |  |  |  | 4.39 nM | 4.688 µM | >200 µM | 6.25 µM |  | 149 nM | 85.6 nM |  |  |
| NS(=O)(=O)c1cccc(-c2ccc(C(O)CO)cc2)c1-c1nn[nH]n1 (stereo not drawn) [Example 321, 4′-(1,2-dihydroxyethyl)-2-(2H-tetrazol-5-yl)-[1,1′-biphenyl]-3-sulfonamide] | 19.2 nM | 1.563 µM | 50 µM | 6.25 µM |  | 93.5 nM |  |  |  |  |  |  |  | 199 nM |  |
| NS(=O)(=O)c1cccc(-c2ccc3ccncc3c2)c1-c1nn[nH]n1 [Example 71, 3-isoquinolin-7-yl-2-(2H-tetrazol-5-yl)benzenesulfonamide] |  |  |  |  |  |  | 1.22 nM | 0.7813 µM | 75 µM | 18.75 µM | 14.5 nM | 78.6 nM |  |  |  |
| NS(=O)(=O)c1nccc(-c2ccc3[nH]nc(C(F)(F)F)c3c2)c1-c1nn[nH]n1 [Example 209, 3-(2H-tetrazol-5-yl)-4-(3-(trifluoromethyl)-1H-indazol-5-yl)pyridine-2-sulfonamide] |  |  |  |  |  |  | 26.3 nM | 2.604 µM | 37.5 µM | 75 µM | 5.45 nM | 516 nM |  |  |  |
| Cc1ccc(-c2cc(-c3ccc(C(N)=O)cc3)cc(S(N)(=O)=O)c2-c2nn[nH]n2)cc1 [Example 296, 4″-methyl-5′-sulfamoyl-4′-(2H-tetrazol-5-yl)-[1,1′:3′,1″-terphenyl]-4-carboxamide] | 0.637 nM | 1.953 µM | >200 µM | 3.125 µM | 127 nM | 54.8 nM |  |  |  |  |  |  |  |  |  |
| NS(=O)(=O)c1cccc(-c2ccc(N3CCCCC3)nc2)c1-c1nn[nH]n1 [Example 322, 3-(6-(piperidin-1-yl)pyridin-3-yl)-2-(2H-tetrazol-5-yl)benzenesulfonamide] | 36.5 nM | 7.813 µM | 200 µM | 25 µM | 3650 nM | 321 nM |  |  |  |  |  |  |  |  |  |
| NC(=O)c1ccc(-c2ccnc(S(N)(=O)=O)c2-c2nnn[nH]2)cc1 [Example 184, 4-(2-Sulfamoyl-3-(1H-tetrazol-5-yl)pyridin-4-yl)benzamide] |  |  |  |  |  |  | 66.9 nM | 0.5859 µM | 25 µM | 37.5 µM | 164 nM | 602 nM |  |  |  |
| NC(=O)c1cccc(-c2ccnc(S(N)(=O)=O)c2-c2nn[nH]n2)c1 [Example 204, 3-(2-sulfamoyl-3-(2H-tetrazol-5-yl)pyridin-4-yl)benzamide] |  |  |  |  |  |  | 59 nM | 0.3906 µM | 12.5 µM | 37.5 µM | 238 nM | 2860 nM |  |  |  |
| Cc1ccc(-c2cc(-c3ccc4c(c3)CNC4=O)cc(S(N)(=O)=O)c2-c2nn[nH]n2)cc1 [Example 290, 4′-Methyl-5-(1-oxoisoindolin-5-yl)-2-(2H-tetrazol-5-yl)-[1,1′-biphenyl]-3-sulfonamide] | 0.637 nM | 3.516 µM | >200 µM | 19.53 µM | 34.3 nM | 19.7 nM |  |  |  |  |  |  |  |  |  |
| C[C@H]1NC(=O)O[C@H]1c1ccc(-c2ccnc(S(N)(=O)=O)c2-c2nnn[nH]2)cc1 (racemic) [Example 191, (±)-4-(4-(cis-4-Methyl-2-oxooxazolidin-5-yl)phenyl)-3-(1H-tetrazol-5-yl)pyridine-2-sulfonamide] |  |  |  |  |  |  | 7.75 nM | 9.375 µM | 75 µM | 15.63 µM | 45.9 nM |  |  |  | 76 nM |
| NS(=O)(=O)c1cccc(-c2ccc(-n3nccn3)cc2)c1-c1nn[nH]n1 [Example 5, 2-(2H-tetrazol-5-yl)-4′-(2H-1,2,3-triazol-2-yl)biphenyl-3-sulfonamide] |  |  |  |  |  |  | 3.44 nM | 0.7813 µM | >200 µM | 12.5 µM | 56.5 nM | 72.3 nM |  |  |  |
| Cc1ccc(-c2cc(-c3ccc4c(c3)CNC4)cc(S(N)(=O)=O)c2-c2nn[nH]n2)cc1 [Example 294, 5-(isoindolin-5-yl)-4′-methyl-2-(2H-tetrazol-5-yl)-[1,1′-biphenyl]-3-sulfonamide] | 0.637 nM | 0.3802 µM | 37.5 µM | 0.6406 µM |  | 29.4 nM |  |  |  |  |  |  |  | 193 nM |  |
| NS(=O)(=O)c1cccc(-c2ccc(-c3nnn[nH]3)cc2)c1-c1nn[nH]n1 [Example 72, 4′-(1H-tetrazol-5-yl)-2-(2H-tetrazol-5-yl)biphenyl-3-sulfonamide] |  |  |  |  |  |  | 0.637 nM | 2.344 µM | 25 µM | 12.5 µM | 22.2 nM | 48.7 nM |  |  |  |
| NS(=O)(=O)c1cccc(-c2cnc(N3CCNCC3)nc2)c1-c1nn[nH]n1 [Example 320, 3-(2-(Piperazin-1-yl)pyrimidin-5-yl)-2-(2H-tetrazol-5-yl)benzenesulfonamide] | 14.4 nM | 0.6836 µM | 6.25 µM | 9.375 µM |  | 294 nM |  |  |  |  |  |  |  | 35.9 nM |  |
| CC(c1ccc(-c2cccc(S(N)(=O)=O)c2-c2nn[nH]n2)cc1)N1CCOCC1 (stereo not drawn) [Example 4, 4′-(1-morpholin-4-ylethyl)-2-(2H-tetrazol-5-yl)biphenyl-3-sulfonamide] |  |  |  |  |  |  | 2.84 nM | 0.7813 µM | >200 µM | 6.25 µM | 196 nM | 11.3 nM |  |  |  |
| Cc1csc(-c2cccc(S(N)(=O)=O)c2-c2nn[nH]n2)n1 [Example 34, 3-(4-methyl-1,3-thiazol-2-yl)-2-(2H-tetrazol-5-yl)benzenesulfonamide] |  |  |  |  |  |  | 151 nM | 3.125 µM | >200 µM | 150 µM | 1440 nM | 3090 nM |  |  |  |
| NS(=O)(=O)c1cccc(-c2ccc(C(O)C(F)(F)F)cc2)c1-c1nn[nH]n1 (stereo not drawn) [Example 3, 2(2H-tetrazol-5-yl)4′-(2,2,2-trifluoro-1-hydroxyethyl)biphenyl-3-sulfonamide] |  |  |  |  |  |  | 1.49 nM | 0.7813 µM | 200 µM | 1.563 µM | 39.9 nM | 8.92 nM |  |  |  |
